{"source": "patent US20250367240A1", "about": "“DERIVATION OF GLUCOSE-RESPONSIVE INSULIN-SECRETING CELLS AND ORGANOIDS FROM HUMAN STOMACH CELLS AND THEIR USE TO TREAT DIABETES” (CORNELL UNIVERSITY, priority 2022, published 2025)", "type_in_all_cases": "cell-based, human", "key": {"[1]": {"system": "Ngn3ER/PM-hGSCs", "test": "Supplement screen to formulate serum-free medium for GINS differentiation", "conditions": "day-7 post differentiation; for INS mRNA levels: single supplement in serum-free basal medium", "protocol": "Ngn3ER/PM-hGSCs were seeded 5 days prior to differentiation in 96-well plate. To start differentiation, 1 μM 4-OH-TAM was added and incubated for 2 days. The culture medium was then changed to serum-free basal medium with one supplement and Doxycycline to activate Pdx1-Mafa expression. The basal serum-free medium for screens was prepared as follows: advanced DMEM/F12 (Thermo Fisher Scientific, 12634010) was supplemented with 10 mM HEPES (Thermo Fisher Scientific, 15-630-080), 1× GlutaMAX (Thermo Fisher Scientific, 35050061), 1× B-27 (Themo Fisher Scientific, 17504044), 1× N-2 (Thermo Fisher Scientific, 17502048), 25 μM Primocin, and 500 μM N-Acetyl-L-Cysteine (NAC) (Sigma-Aldrich, A9165). Seven days after supplement treatment, the following were (1) spontaneous clustering of nascent GINS cells by live imaging of mCherry^+ cells, and (2) qPCR of INS mRNA levels. Then multiple b-cell markers with qPCR on samples treated with Nicotinamide, Y-27632 and A8301 were analyzed."}, "[2]": {"system": "GINS organoids", "test": "Static glucose-stimulated insulin secretion (GSIS)", "conditions": "day-18 organoids donor #6; 10 nM glibenclamide or 0.5 mM diazoxide", "protocol": "Ten to twenty GINS organoids were sampled for each group. Organoids were washed with RPMI-1640 no nutrient medium (RPMIN, MyBioSource, MBS652918), and equilibrated in 3.3 mM glucose RPMIN for 2 hours. Organoids were incubated in low-glucose RPMIN for 1 hour, and supernatant was collected. Organoids were then incubated in high-glucose RPMIN for 1 hour, and supernatant was collected. For sequential glucose challenge, organoids were washed 2 times in RPMIN prior to the next stimulation. Secreted insulin was measured using the Stellux Chemi Human Insulin ELISA (ALPCO Diagnostics, 80-INSHU-CH10)."}, "[3]": {"system": "GINS organoids", "test": "Dynamic GSIS with perifusion", "conditions": "day-21 organoids, two donors; 100 ng/mL Liraglutide in 20 mM glucose; 30 mM KCl in 2 mM glucose", "protocol": "Twenty GINS organoids were sampled for each group. Organoids were washed with RPMIN and equilibrated in 1 mM glucose RPMIN for 2 hours at 37° C. incubator. The assay was performed in RPMIN on a temperature-controlled (37° C.) perifusion system (Biorep Technologies). Organoids were loaded in chambers and perfused at a flow rate of 100 μL/min in the following steps: (1) 48 min in 1 mM glucose, (2) 24 min in 2 mM glucose. (3) 36 min in 20 mM glucose, (4) 24 min in 20 mM glucose with 100 ng/mL Liraglutide (Cayman, 24727), (5) 48 min in 2 mM glucose, (6) 20 min in 2 mM glucose with 30 mM KCl. Secreted insulin was measured using the Stellux Chemi Human Insulin ELISA."}}, "note": "Entries after “also recorded” stand apart in the source; their conditions may differ.", "data": [{"compound": "Cc1cccc(-c2nn(C(=S)Nc3ccccc3)cc2-c2ccnc3ccccc23)n1", "note": "[A8301, 3-(6-methyl-2-pyridinyl)-N-phenyl-4-(4-quinolinyl)-1H-pyrazole-1-carbothioamide]", "values": [{"measurement": "spontaneous aggregation (clustering) of nascent GINS cells", "setting": "[1]; mCherry live imaging", "value": "stimulated; also recorded: most observable clustering effect"}, {"measurement": "expression of several key b-cell transcription factors", "setting": "[1]; qPCR, vs no supplement control", "value": "stimulated"}]}, {"compound": "CC1=NS(=O)(=O)c2cc(Cl)ccc2N1", "note": "[Diazoxide]", "values": [{"measurement": "insulin secretion response of GINS organoids to the drug", "setting": "[2]", "value": "responded"}]}, {"compound": "COc1ccc(Cl)cc1C(=O)NCCc1ccc(S(=O)(=O)NC(=O)NC2CCCCC2)cc1", "note": "[Glibenclamide]", "values": [{"measurement": "insulin secretion response of GINS organoids to the drug", "setting": "[2]", "value": "responded"}]}, {"compound": "[Cl-].[K+]", "note": "[KCl]", "values": [{"measurement": "insulin secretion response of GINS cells to the agent, dynamic GSIS", "setting": "[3]", "value": "responded robustly"}]}, {"compound": "NC(=O)c1cccnc1", "note": "[Nicotinamide, 3-pyridinecarboxamide]", "values": [{"measurement": "INS mRNA levels", "setting": "[1]; vs no supplement control", "value": "significantly promoted; also recorded: significantly up-regulated"}]}, {"compound": "C[C@@H](N)[C@H]1CC[C@H](C(=O)Nc2ccncc2)CC1.Cl.Cl", "note": "[Y-27632, trans-4-[(1R)-1-aminoethyl]-N-4-pyridinyl-Cyclohexanecarboxamide, dihydrochloride]", "values": [{"measurement": "INS mRNA levels", "setting": "[1]; vs no supplement control, dihydrochloride", "value": "significantly promoted; also recorded: significantly up-regulated"}]}]}
